Measured values: article PMC5218480 (PLoS ONE, 2017)

System: MV-4-11 cells
Assay: Gene expression microarray analysis (Affymetrix PrimeView) and GSEA
Format: cell-based, human
Parameters: RFU PODN (11730768_x_at) / Fold change /veh PODN (11730768_x_at) / RFU LINC00158 (11744669_a_at) / Fold change /veh LINC00158 (11744669_a_at) / RFU DUSP10 (11751237_a_at) / Fold change /veh DUSP10 (11751237_a_at) / RFU ID3 (11757404_x_at) / Fold change /veh ID3 (11757404_x_at) / RFU PLEKHG5 (11737974_s_at) / Fold change /veh PLEKHG5 (11737974_s_at) / RFU LRRC4B (11730491_at) / Fold change /veh LRRC4B (11730491_at) / RFU GIMAP4 (11747438_a_at) / Fold change /veh GIMAP4 (11747438_a_at) / RFU KRT8 (11758183_x_at) / Fold change /veh KRT8 (11758183_x_at) / RFU CNN1 (11734310_a_at) / Fold change /veh CNN1 (11734310_a_at) / RFU VPS37D (11726825_at) / Fold change /veh VPS37D (11726825_at) / RFU C10orf10 (11716522_x_at) / Fold change /veh C10orf10 (11716522_x_at) / RFU KIR2DL2 /// KIR2DL4 /// KIR2DL5A /// KIR2DL5B /// KIR2DS1 /// KIR2DS2 /// KIR2DS3 /// KIR2DS4 /// KIR3DL3 /// KIR3DL3 /// KIR3DS1 (11738374_at) / Fold change /veh KIR2DL2 /// KIR2DL4 /// KIR2DL5A /// KIR2DL5B /// KIR2DS1 /// KIR2DS2 /// KIR2DS3 /// KIR2DS4 /// KIR3DL3 /// KIR3DL3 /// KIR3DS1 (11738374_at) / RFU C1QL1 (11718748_at) / Fold change /veh C1QL1 (11718748_at) / RFU TMPRSS4 (11747572_a_at) / Fold change /veh TMPRSS4 (11747572_a_at) / RFU HAMP (11756126_x_at) / Fold change /veh HAMP (11756126_x_at) / RFU RNFT2 (11725882_a_at) / Fold change /veh RNFT2 (11725882_a_at) / RFU NR4A2 (11747474_a_at) / Fold change /veh NR4A2 (11747474_a_at) / RFU ABCC12 (11746883_a_at) / Fold change /veh ABCC12 (11746883_a_at) / RFU TMEM136 (11760407_x_at) / Fold change /veh TMEM136 (11760407_x_at) / RFU CLDN22 /// WWC2 (11732394_at) / Fold change /veh CLDN22 /// WWC2 (11732394_at) / RFU HLA-DPB1 (11760878_x_at) / Fold change /veh HLA-DPB1 (11760878_x_at) / RFU SPINT1 (11716480_a_at) / Fold change /veh SPINT1 (11716480_a_at) / RFU GAP43 (11754022_s_at) / Fold change /veh GAP43 (11754022_s_at) / RFU A4GNT (11735810_at) / Fold change /veh A4GNT (11735810_at) / RFU PRB3 (11715151_x_at) / Fold change /veh PRB3 (11715151_x_at) / RFU TUBB4B (11761932_at) / Fold change /veh TUBB4B (11761932_at) / RFU CAPN14 (11732068_a_at) / Fold change /veh CAPN14 (11732068_a_at) / RFU TMCC2 (11721928_a_at) / Fold change /veh TMCC2 (11721928_a_at) / RFU IRGQ (11745062_a_at) / Fold change /veh IRGQ (11745062_a_at) / RFU FAM174B (11720279_a_at) / Fold change /veh FAM174B (11720279_a_at) / RFU TMPRSS4 (11748680_a_at) / Fold change /veh TMPRSS4 (11748680_a_at) / RFU FAM212B (11763350_a_at) / Fold change /veh FAM212B (11763350_a_at) / RFU PLEKHG5 (11743358_a_at) / Fold change /veh PLEKHG5 (11743358_a_at) / RFU ZSCAN30 (11745921_a_at) / Fold change /veh ZSCAN30 (11745921_a_at) / RFU CMKLR1 (11741424_a_at) / Fold change /veh CMKLR1 (11741424_a_at) / RFU LOC101060620 /// MAPK8IP1 (11723275_at) / Fold change /veh LOC101060620 /// MAPK8IP1 (11723275_at) / RFU SPTSSB (11747773_x_at) / Fold change /veh SPTSSB (11747773_x_at) / RFU PRSS12 (11739890_at) / Fold change /veh PRSS12 (11739890_at) / RFU BIN1 (11741810_x_at) / Fold change /veh BIN1 (11741810_x_at) / RFU WNT11 (11732464_a_at) / Fold change /veh WNT11 (11732464_a_at) / RFU C10orf10 (11716521_a_at) / Fold change /veh C10orf10 (11716521_a_at) / RFU C5orf56 (11738089_at) / Fold change /veh C5orf56 (11738089_at) / RFU CYB561 (11721691_x_at) / Fold change /veh CYB561 (11721691_x_at) / RFU ANKRD19P (11752326_a_at) / Fold change /veh ANKRD19P (11752326_a_at) / RFU OR2T12 /// OR2T33 /// OR2T8 (11738714_s_at) / Fold change /veh OR2T12 /// OR2T33 /// OR2T8 (11738714_s_at) / RFU VCAN (11748164_a_at) / Fold change /veh VCAN (11748164_a_at) / RFU JSRP1 (11732532_at) / Fold change /veh JSRP1 (11732532_at) / RFU KRTAP10-11 (11738290_x_at) / Fold change /veh KRTAP10-11 (11738290_x_at) / RFU MYO3A (11730013_a_at) / Fold change /veh MYO3A (11730013_a_at) / RFU EBF3 (11725865_a_at) / Fold change /veh EBF3 (11725865_a_at) / RFU CAMK2N1 (11719241_x_at) / Fold change /veh CAMK2N1 (11719241_x_at) / RFU C5orf56 (11738088_a_at) / Fold change /veh C5orf56 (11738088_a_at) / RFU OLFML3 (11715873_a_at) / Fold change /veh OLFML3 (11715873_a_at) / RFU LOC100653217 /// NTM (11731650_a_at) / Fold change /veh LOC100653217 /// NTM (11731650_a_at) / RFU MAPK11 (11762145_a_at) / Fold change /veh MAPK11 (11762145_a_at) / RFU FIZ1 (11724087_x_at) / Fold change /veh FIZ1 (11724087_x_at) / RFU OASL (11726364_x_at) / Fold change /veh OASL (11726364_x_at) / RFU SOX15 (11748057_x_at) / Fold change /veh SOX15 (11748057_x_at) / RFU CD79A (11719716_a_at) / Fold change /veh CD79A (11719716_a_at) / RFU HIST1H1D (11736915_at) / Fold change /veh HIST1H1D (11736915_at) / RFU CASKIN2 (11723855_a_at) / Fold change /veh CASKIN2 (11723855_a_at) / RFU LOC730098 (11760151_x_at) / Fold change /veh LOC730098 (11760151_x_at) / RFU OR4N2 (11742367_at) / Fold change /veh OR4N2 (11742367_at) / RFU PRRT2 (11749266_a_at) / Fold change /veh PRRT2 (11749266_a_at) / RFU SNX32 (11753110_a_at) / Fold change /veh SNX32 (11753110_a_at) / RFU CDHR5 (11726645_a_at) / Fold change /veh CDHR5 (11726645_a_at) / RFU RCAN1 (11760418_a_at) / Fold change /veh RCAN1 (11760418_a_at) / RFU FAM167A (11723789_a_at) / Fold change /veh FAM167A (11723789_a_at) / RFU FAM26E (11764081_at) / Fold change /veh FAM26E (11764081_at) / RFU ISYNA1 (11749810_s_at) / Fold change /veh ISYNA1 (11749810_s_at) / RFU ACY1 (11761880_at) / Fold change /veh ACY1 (11761880_at) / RFU 11764098_at / Fold change /veh 11764098_at / RFU SAMD14 (11745864_x_at) / Fold change /veh SAMD14 (11745864_x_at) / RFU NPB (11741838_a_at) / Fold change /veh NPB (11741838_a_at) / RFU TMPRSS6 (11731388_a_at) / Fold change /veh TMPRSS6 (11731388_a_at) / RFU KRTAP10-2 (11738614_at) / Fold change /veh KRTAP10-2 (11738614_at) / RFU ARHGAP8 /// PRR5-ARHGAP8 (11727945_x_at) / Fold change /veh ARHGAP8 /// PRR5-ARHGAP8 (11727945_x_at) / RFU KRTAP5-7 /// NADSYN1 (11734609_at) / Fold change /veh KRTAP5-7 /// NADSYN1 (11734609_at) / RFU RASL12 (11751679_a_at) / Fold change /veh RASL12 (11751679_a_at) / RFU CDKN2B (11736163_a_at) / Fold change /veh CDKN2B (11736163_a_at) / RFU PRF1 (11729649_at) / Fold change /veh PRF1 (11729649_at) / RFU, ZNF638 /// ZNF638-IT1 / Fold change vs veh, ZNF638 /// ZNF638-IT1 / RFU, PANK3 / Fold change vs veh, PANK3 / RFU, SH3YL1 / Fold change vs veh, SH3YL1 / RFU, ZEB2 / Fold change vs veh, ZEB2 / RFU, NRIP1 / Fold change vs veh, NRIP1 / RFU, PTTG1IP / Fold change vs veh, PTTG1IP / RFU, CAPN2 / Fold change vs veh, CAPN2 / RFU, MED14 / Fold change vs veh, MED14 / RFU, SNORA58 / Fold change vs veh, SNORA58 / RFU, C1orf63 / Fold change vs veh, C1orf63 / RFU, LRRFIP1 / Fold change vs veh, LRRFIP1 / RFU, NDUFAF7 / Fold change vs veh, NDUFAF7 / RFU, SLC12A2 / Fold change vs veh, SLC12A2 / RFU, IBTK / Fold change vs veh, IBTK / RFU, ESF1 / Fold change vs veh, ESF1 / Fold change vs veh, TMEM50B / RFU, TAOK1 / Fold change vs veh, TAOK1 / RFU, ACBD3 / Fold change vs veh, ACBD3 / RFU, TMA16 / Fold change vs veh, TMA16 / RFU, RWDD3 / Fold change vs veh, RWDD3 / RFU, BCAT1 / Fold change vs veh, BCAT1 / RFU, EDEM3 / Fold change vs veh, EDEM3 / RFU, TMEM33 / Fold change vs veh, TMEM33 / RFU, WDR75 / Fold change vs veh, WDR75 / RFU, AHCTF1 / Fold change vs veh, AHCTF1 / RFU, TFRC / Fold change vs veh, TFRC / RFU, ZDHHC17 / Fold change vs veh, ZDHHC17 / RFU, NOM1 / Fold change vs veh, NOM1 / RFU, ARL8B / Fold change vs veh, ARL8B / RFU, ZBTB11 / Fold change vs veh, ZBTB11 / RFU, TAMM41 / Fold change vs veh, TAMM41 / RFU, KIAA1704 /// LOC100996395 / Fold change vs veh, KIAA1704 /// LOC100996395 / RFU, ING1 / Fold change vs veh, ING1 / RFU, TRMT61B / Fold change vs veh, TRMT61B / RFU, FUBP3 / Fold change vs veh, FUBP3 / RFU, TP53 / Fold change vs veh, TP53 / RFU, TNKS2 / Fold change vs veh, TNKS2 / RFU, ZFP14 / Fold change vs veh, ZFP14 / RFU, ACTR2 / Fold change vs veh, ACTR2 / RFU, PPP3R1 / Fold change vs veh, PPP3R1 / RFU, PIK3R1 / Fold change vs veh, PIK3R1 / RFU, HNRNPA1 / Fold change vs veh, HNRNPA1 / RFU, RNF170 / Fold change vs veh, RNF170 / RFU, ZNF28 / Fold change vs veh, ZNF28 / RFU, RNGTT / Fold change vs veh, RNGTT / RFU, OGT / Fold change vs veh, OGT / RFU, BRD1 / Fold change vs veh, BRD1 / RFU, MARS / Fold change vs veh, MARS / RFU, ZNF655 / Fold change vs veh, ZNF655 / RFU, FAHD1 / Fold change vs veh, FAHD1 / RFU, BDP1 / Fold change vs veh, BDP1 / RFU, LRRCC1 / Fold change vs veh, LRRCC1 / RFU, ARID1A / Fold change vs veh, ARID1A / RFU, ZNF146 / Fold change vs veh, ZNF146 / RFU, ZNF330 / Fold change vs veh, ZNF330 / RFU, GPN3 / Fold change vs veh, GPN3 / RFU, C9orf123 / Fold change vs veh, C9orf123 / RFU, N4BP2L2 / Fold change vs veh, N4BP2L2 / RFU, ARFIP1 / Fold change vs veh, ARFIP1 / RFU, FAM179B / Fold change vs veh, FAM179B / RFU, BCL10 / Fold change vs veh, BCL10 / RFU, UHRF1BP1L / Fold change vs veh, UHRF1BP1L / RFU, BET1 / Fold change vs veh, BET1 / RFU, CNOT2 / Fold change vs veh, CNOT2 / RFU, ZNF268 / Fold change vs veh, ZNF268 / Fold change vs veh, ZNF507 / RFU, DGCR2 / Fold change vs veh, DGCR2 / RFU, WDSUB1 / Fold change vs veh, WDSUB1 / Fold change vs veh, HSP90B1 /// MIR3652 / RFU, ADSS / Fold change vs veh, ADSS / RFU, GK / Fold change vs veh, GK / RFU, ZNF148 / Fold change vs veh, ZNF148 / RFU, TAF9 / Fold change vs veh, TAF9 / RFU, SLC1A5 / Fold change vs veh, SLC1A5 / RFU, SLMO2 / Fold change vs veh, SLMO2 / RFU, ABCC4 / Fold change vs veh, ABCC4 / RFU, LOC101060439 /// RAP1B / Fold change vs veh, LOC101060439 /// RAP1B / RFU, RFX7 / Fold change vs veh, RFX7 / RFU, GTPBP10 / Fold change vs veh, GTPBP10 / RFU, CNEP1R1 / Fold change vs veh, CNEP1R1 / RFU, BIVM-ERCC5 /// ERCC5 / Fold change vs veh, BIVM-ERCC5 /// ERCC5 / RFU, ILF3 / Fold change vs veh, ILF3 / RFU 11762660_at / Fold change /veh 11762660_at / RFU VCAN (11757783_s_at) / Fold change /veh VCAN (11757783_s_at) / RFU DDX43 (11728927_at) / Fold change /veh DDX43 (11728927_at) / RFU KRT8 (11758188_x_at) / Fold change /veh KRT8 (11758188_x_at) / RFU NKD1 (11759106_at) / Fold change /veh NKD1 (11759106_at) / RFU SRD5A1 (11742802_a_at) / Fold change /veh SRD5A1 (11742802_a_at) / RFU TPSAB1 /// TPSB2 (11721975_s_at) / Fold change /veh TPSAB1 /// TPSB2 (11721975_s_at) / RFU GSTM3 (11746129_a_at) / Fold change /veh GSTM3 (11746129_a_at) / RFU IL23R (11737362_x_at) / Fold change /veh IL23R (11737362_x_at) / RFU TMEM51 (11727254_a_at) / Fold change /veh TMEM51 (11727254_a_at) / RFU PIWIL2 (11732686_x_at) / Fold change /veh PIWIL2 (11732686_x_at) / RFU ORM1 (11744905_x_at) / Fold change /veh ORM1 (11744905_x_at) / RFU CCDC152 (11743942_at) / Fold change /veh CCDC152 (11743942_at) / RFU ECM1 (11717891_a_at) / Fold change /veh ECM1 (11717891_a_at) / RFU IL23R (11748794_a_at) / Fold change /veh IL23R (11748794_a_at) / RFU TNFAIP8L3 (11732012_x_at) / Fold change /veh TNFAIP8L3 (11732012_x_at) / RFU MBOAT4 (11741988_at) / Fold change /veh MBOAT4 (11741988_at) / RFU 11764193_at / Fold change /veh 11764193_at / RFU TMEM53 (11763286_at) / Fold change /veh TMEM53 (11763286_at) / RFU MAGEB2 (11727129_at) / Fold change /veh MAGEB2 (11727129_at) / RFU TMEM200A (11744735_a_at) / Fold change /veh TMEM200A (11744735_a_at) / RFU CCDC152 (11751479_a_at) / Fold change /veh CCDC152 (11751479_a_at) / RFU FAM211A (11726209_a_at) / Fold change /veh FAM211A (11726209_a_at) / RFU RGS16 (11746705_a_at) / Fold change /veh RGS16 (11746705_a_at) / RFU VCAN (11755009_s_at) / Fold change /veh VCAN (11755009_s_at) / RFU RHOB (11743442_s_at) / Fold change /veh RHOB (11743442_s_at) / RFU RGS16 (11720943_a_at) / Fold change /veh RGS16 (11720943_a_at) / RFU RGS16 (11720944_at) / Fold change /veh RGS16 (11720944_at) / RFU, VPS4B / Fold change vs veh, VPS4B / RFU, CREB1 / Fold change vs veh, CREB1 / RFU, DNAJC13 / Fold change vs veh, DNAJC13 / RFU, GNAQ / Fold change vs veh, GNAQ / RFU, CDK5R1 / Fold change vs veh, CDK5R1 / RFU, ZRANB3 / Fold change vs veh, ZRANB3 / RFU, CUL4A / Fold change vs veh, CUL4A / RFU, CCNY / Fold change vs veh, CCNY / RFU, UFL1 / Fold change vs veh, UFL1 / RFU, COG3 / Fold change vs veh, COG3 / RFU, DIAPH2 / Fold change vs veh, DIAPH2 / RFU, SKA2 / Fold change vs veh, SKA2 / RFU, AFF3 / Fold change vs veh, AFF3 / RFU, LMF1 / Fold change vs veh, LMF1 / RFU, IPO11 / Fold change vs veh, IPO11 / RFU, DFFB / Fold change vs veh, DFFB / RFU, FOXP1 / Fold change vs veh, FOXP1 / RFU, CARD8 / Fold change vs veh, CARD8 / RFU, STRN3 / Fold change vs veh, STRN3 / RFU, ADK / Fold change vs veh, ADK / RFU, RASSF2 / Fold change vs veh, RASSF2 / RFU, WIPF1 / Fold change vs veh, WIPF1 / RFU, LARP1B / Fold change vs veh, LARP1B / RFU, RASA1 / Fold change vs veh, RASA1 / RFU, RB1 / Fold change vs veh, RB1 / RFU, PPFIA1 / Fold change vs veh, PPFIA1 / RFU, MAT2A / Fold change vs veh, MAT2A / RFU, CCT5 / Fold change vs veh, CCT5 / RFU, WDR92 / Fold change vs veh, WDR92 / RFU, CUX1 / Fold change vs veh, CUX1 / RFU, TTC7A / Fold change vs veh, TTC7A / RFU, TMEM135 / Fold change vs veh, TMEM135 / RFU, DEPTOR / Fold change vs veh, DEPTOR / RFU, CPM / Fold change vs veh, CPM / RFU, DNAJB6 / Fold change vs veh, DNAJB6 / RFU, CACNA2D3 / Fold change vs veh, CACNA2D3 / RFU, DTX4 / Fold change vs veh, DTX4 / RFU, TFCP2 / Fold change vs veh, TFCP2 / RFU, GMCL1 /// GMCL1P1 / Fold change vs veh, GMCL1 /// GMCL1P1 / RFU, AEBP2 / Fold change vs veh, AEBP2 / RFU, SNHG1 /// SNORD22 /// SNORD25 /// SNORD26 /// SNORD27 /// SNORD28 /// SNORD29 /// SNORD31 / Fold change vs veh, SNHG1 /// SNORD22 /// SNORD25 /// SNORD26 /// SNORD27 /// SNORD28 /// SNORD29 /// SNORD31 / Fold change (Aza/veh), C12orf56 (ProbeSet 11735607_a_at) / Fold change (ACY-1035/veh), C12orf56 (ProbeSet 11735607_a_at) / Fold change (Aza/veh), FGFR1OP (ProbeSet 11751329_s_at) / Fold change (ACY-1035/veh), FGFR1OP (ProbeSet 11751329_s_at) / Fold change (Aza/veh), VPS36 (ProbeSet 11739960_a_at) / Fold change (ACY-1035/veh), VPS36 (ProbeSet 11739960_a_at) / RFU SYPL1 (11715823_x_at) / Fold change /veh SYPL1 (11715823_x_at) / RFU IGFBP7 (11715501_s_at) / Fold change /veh IGFBP7 (11715501_s_at) / RFU REEP3 (11722064_at) / Fold change /veh REEP3 (11722064_at) / RFU IGLL1 (11728026_x_at) / Fold change /veh IGLL1 (11728026_x_at): dose or concentration left out as unconfirmed
Conditions: ProbeSet 11715478_a_at; LIST B

Compound: Nc1ccc(-c2cccs2)cc1NC(=O)c1ccc2c(c1)cc(C1CC1)n2CCN1CCOCC1 [ACY-1035]
- Fold change vs veh, TFRC: 0.87
